Laboratory results reported in patent US20260200897A1, “4-((5-(3-(4-(PYRIDIN-2-YL)CYCLOPENTYL)-1H-PYRAZOL-3-YL)AMINO)-BENZENESULFONAMIDE DERIVATIVES AND SIMILAR COMPOUNDS AS CDK INHIBITORS FOR THE TREATMENT OF CANCER” (BeOne Medicines I GmbH, priority 2023, published 2026).

What was measured:
CDK2/Cyclin E1 = CDK2/Cyclin E1 (Homo sapiens, UniProt P24941); test: CDK2/Cyclin E1 TR-FRET biochemical assay, 0.060 mM ATP; settings: 0.15 μM Rb (Ser780)-biotin substrate, 120 min reaction, Table 1
CDK1/Cyclin B1 = CDK1/Cyclin B1 (Homo sapiens, UniProt P06493); test: CDK1/Cyclin B1 TR-FRET biochemical assay, 0.015 mM ATP; settings: 0.15 μM Rb (Ser780)-biotin substrate, 120 min reaction, Table 1
CDK1/Cyclin B1, sequence (P06493 whole entry): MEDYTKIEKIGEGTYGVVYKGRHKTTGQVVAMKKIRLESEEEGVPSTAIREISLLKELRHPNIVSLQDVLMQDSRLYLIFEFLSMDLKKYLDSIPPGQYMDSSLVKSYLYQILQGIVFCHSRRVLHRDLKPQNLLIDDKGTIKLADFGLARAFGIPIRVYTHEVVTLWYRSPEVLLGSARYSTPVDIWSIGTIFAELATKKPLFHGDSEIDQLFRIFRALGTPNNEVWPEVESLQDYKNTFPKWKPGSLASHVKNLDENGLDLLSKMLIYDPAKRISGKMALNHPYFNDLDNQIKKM
CDK1/Cyclin B1, sequence (P14635 whole entry partner): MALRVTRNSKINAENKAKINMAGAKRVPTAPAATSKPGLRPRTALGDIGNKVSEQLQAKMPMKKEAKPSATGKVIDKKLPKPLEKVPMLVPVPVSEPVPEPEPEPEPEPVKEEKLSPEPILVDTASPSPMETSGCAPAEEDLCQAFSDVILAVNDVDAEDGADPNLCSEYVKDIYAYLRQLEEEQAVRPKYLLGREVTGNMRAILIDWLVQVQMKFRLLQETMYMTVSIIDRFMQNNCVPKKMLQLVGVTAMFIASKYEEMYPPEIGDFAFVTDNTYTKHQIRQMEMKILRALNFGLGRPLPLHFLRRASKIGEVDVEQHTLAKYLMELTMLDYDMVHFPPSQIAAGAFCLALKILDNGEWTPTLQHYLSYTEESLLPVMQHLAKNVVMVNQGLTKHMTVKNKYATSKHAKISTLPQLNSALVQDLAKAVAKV

Row | SMILES | IC50 (CDK2/Cyclin E1) | IC50 (CDK1/Cyclin B1)
1 | Cc1ncccc1O[C@@H]1CC[C@H](c2cc(Nc3ccc4c(c3F)CNS4(=O)=O)n[nH]2)C1 (relative stereo) [Example 40, cis-4-fluoro-5-((5-(3-((2-methylpyridin-3-yl)oxy)cyclopentyl)-1H-pyrazol-3-yl)amino)-2,3-dihydrobenzo[d]isothiazole 1,1-dioxide] | 19 nM | 552 nM
2 | CC(C)n1cnnc1O[C@@H]1CC[C@H](c2cc(Nc3ccc4c(c3F)CNS4(=O)=O)n[nH]2)C1 (relative stereo) [Example 57, cis-4-fluoro-5-((5-(3-((4-isopropyl-4H-1,2,4-triazol-3-yl)oxy)cyclopentyl)-1H-pyrazol-3-yl)amino)-2,3-dihydrobenzo[d]isothiazole 1,1-dioxide] | 341 nM | 8300 nM
3 | O=S1(=O)NCc2c1ccc(Nc1cc([C@H]3CC[C@@H](Oc4ccn[nH]4)C3)[nH]n1)c2F (relative stereo) [Example 62, cis-5-((5-(3-((1H-pyrazol-5-yl)oxy)cyclopentyl)-1H-pyrazol-3-yl)amino)-4-fluoro-2,3-dihydrobenzo[d]isothiazole 1,1-dioxide] | 24 nM | 571 nM
4 | O=c1c(-c2ccccc2)ccnn1[C@H]1CC[C@@H](c2cc(Nc3ccc4c(c3F)CNS4(=O)=O)n[nH]2)C1 (relative stereo) [Example 30, cis-2-(3-(3-((4-fluoro-1,1-dioxido-2,3-dihydrobenzo[d]isothiazol-5-yl)amino)-1H-pyrazol-5-yl)cyclopentyl)-4-phenylpyridazin-3 (2H)-one] | 2080 nM | > 10000 nM
5 | CC(C)n1ccn([C@H]2CC[C@@H](c3cc(Nc4ccc5c(c4F)CNS5(=O)=O)n[nH]3)C2)c1=O (relative stereo) [Example 83, cis-1-(3-(3-((4-fluoro-1,1-dioxido-2,3-dihydrobenzo[d]isothiazol-5-yl)amino)-1H-pyrazol-5-yl)cyclopentyl)-3-isopropyl-1,3-dihydro-2H-imidazol-2-one] | 710 nM | > 10000 nM
6 | O=S1(=O)NCc2c1ccc(Nc1cc([C@H]3CC[C@@H](Oc4cccnn4)C3)[nH]n1)c2F (relative stereo) [Example 22, cis-4-fluoro-5-((5-(3-(pyridazin-3-yloxy)cyclopentyl)-1H-pyrazol-3-yl)amino)-2,3-dihydrobenzo[d]isothiazole 1,1-dioxide] | 43 nM | 239 nM
7 | O=S1(=O)NCc2c1ccc(Nc1cc([C@H]3CC[C@@H](Oc4nscc4C4CC4)C3)[nH]n1)c2F (relative stereo) [Example 53, cis-5-((5-(3-((4-cyclopropylisothiazol-3-yl)oxy)cyclopentyl)-1H-pyrazol-3-yl)amino)-4-fluoro-2,3-dihydrobenzo[d]isothiazole 1,1-dioxide] | 4.1 nM | 118 nM
8 | CC(C)N1CCN([C@H]2CC[C@@H](c3cc(Nc4ccc5c(c4F)CNS5(=O)=O)n[nH]3)C2)C1=O (relative stereo) [Example 81, cis-1-(3-(3-((4-fluoro-1,1-dioxido-2,3-dihydrobenzo[d]isothiazol-5-yl)amino)-1H-pyrazol-5-yl)cyclopentyl)-3-isopropylimidazolidin-2-one] | 1190 nM | > 10000 nM

Further compounds by falling IC50 (CDK2/Cyclin E1), results first:

Row | IC50 (CDK2/Cyclin E1) | IC50 (CDK1/Cyclin B1) | SMILES
9 | 3440 nM | > 10000 nM | CC(C)(C)c1ccnc(O[C@@H]2CC[C@H](c3cc(Nc4ccc5c(c4F)CNS5(=O)=O)n[nH]3)C2)c1 (relative stereo) [Example 47, cis-5-((5-(3-((4-(tert-butyl)pyridin-2-yl)oxy)cyclopentyl)-1H-pyrazol-3-yl)amino)-4-fluoro-2,3-dihydrobenzo[d]isothiazole 1,1-dioxide]
10 | 130 nM | 1240 nM | O=c1c(C2CC2)ccnn1[C@H]1CC[C@@H](c2cc(Nc3ccc4c(c3F)CNS4(=O)=O)n[nH]2)C1 (relative stereo) [Example 28, cis-4-cyclopropyl-2-(3-(3-((4-fluoro-1,1-dioxido-2,3-dihydrobenzo[d]isothiazol-5-yl)amino)-1H-pyrazol-5-yl)cyclopentyl)pyridazin-3 (2H)-one]
11 | 48 nM | 3570 nM | C=C(C)c1cnn([C@H]2CC[C@@H](c3cc(Nc4ccc5c(c4F)CNS5(=O)=O)n[nH]3)C2)c(=O)c1 (relative stereo) [Example 32, cis-2-(3-(3-((4-fluoro-1,1-dioxido-2,3-dihydrobenzo[d]isothiazol-5-yl)amino)-1H-pyrazol-5-yl)cyclopentyl)-5-(prop-1-en-2-yl)pyridazin-3 (2H)-one]
12 | 8.5 nM | 73 nM | O=S1(=O)NCc2c1ccc(Nc1cc([C@H]3CC[C@@H](Oc4nnccc4-c4ccccc4)C3)[nH]n1)c2F (relative stereo) [Example 31, cis-4-fluoro-5-((5-(3-((4-phenylpyridazin-3-yl)oxy)cyclopentyl)-1H-pyrazol-3-yl)amino)-2,3-dihydrobenzo[d]isothiazole 1,1-dioxide]
13 | 2.9 nM | 35 nM | O=S1(=O)NCc2c1ccc(Nc1cc([C@H]3CC[C@@H](Oc4nnccc4C4CC4)C3)[nH]n1)c2F (relative stereo) [Example 29, cis-5-((5-(3-((4-cyclopropylpyridazin-3-yl)oxy)cyclopentyl)-1H-pyrazol-3-yl)amino)-4-fluoro-2,3-dihydrobenzo[d]isothiazole 1,1-dioxide]
